Laboratory results taken from US20250152608A1, “CONTRACEPTIVE METHODS WITH IMPROVED PEARL INDEX” (ESTETRA SRL, priority 2022, published 2025).

Assay: Solubility description
Assay type: physicochemical

For `C[C@]12CC[C@@H]3c4ccc(O)cc4CC[C@H]3[C@@H]1[C@@H](O)[C@@H](O)C2O` (stereo in doubt) [Estetrol monohydrate, estra-1,3,5(10)-triene-3,15α,16α,17α-tetrol monohydrate], which Solubility (acetone) is on record?
The Solubility was “sparingly soluble”.

What about the Solubility (ethyl acetate and acetonitrile) of the same compound?
The Solubility was “slightly soluble”.

And the Solubility (methanol, ethanol)?
The Solubility was “soluble”.

What about the Solubility (water and aqueous solutions) of the same compound?
The Solubility was “poorly soluble”.

For `C[C@]12CCC(=O)C=C1[C@@H]1C[C@@H]1[C@H]1[C@@H]3[C@@H]4C[C@@H]4[C@@]4(CCC(=O)O4)[C@@]3(C)CC[C@@H]12` [Drospirenone], which Solubility (water) is on record?
The Solubility was “slight solubility”.
